Assay results from ChEMBL document CHEMBL1909046, “DrugMatrix in vitro pharmacology data”.
pIC50, pKi: −log10 of the molar value.

Assays:
[1] = target: T1, B2 bradykinin receptor (Homo sapiens, UniProt P30411); type: cell membranes, Membrane; conditions: chem-1; also: in other assays of this panel Not Active means under 50% inhibition at 10 µM
T1 sequence (P30411 whole entry): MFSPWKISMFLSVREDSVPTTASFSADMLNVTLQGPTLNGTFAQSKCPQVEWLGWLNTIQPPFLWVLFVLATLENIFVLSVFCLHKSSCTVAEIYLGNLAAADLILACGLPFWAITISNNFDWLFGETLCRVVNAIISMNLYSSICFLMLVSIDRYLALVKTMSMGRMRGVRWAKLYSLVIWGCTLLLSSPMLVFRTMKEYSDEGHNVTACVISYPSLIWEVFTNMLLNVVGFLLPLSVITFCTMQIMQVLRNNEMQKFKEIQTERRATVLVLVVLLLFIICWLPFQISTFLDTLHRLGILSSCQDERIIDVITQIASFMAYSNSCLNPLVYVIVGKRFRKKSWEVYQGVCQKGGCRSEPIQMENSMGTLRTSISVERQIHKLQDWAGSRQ

[2] = DRUGMATRIX: Calcium Channel Type L, Benzothiazepine radioligand binding (ligand: [3H] Diltiazem); type: cell membranes, Rattus norvegicus, Wistar, Brain, Membrane; conditions: Not Active = under 50% inhibition at 10 µM
[3] = target: T2, 5-hydroxytryptamine receptor 2C (Homo sapiens, UniProt P28335); experiment: DRUGMATRIX: Serotonin (5-Hydroxytryptamine) 5-HT2C radioligand binding (ligand: [3H] Mesulergine); type: cell membranes, CHO-K1, Membrane; conditions: Not Active = under 50% inhibition at 10 µM
T2 sequence (P28335 whole entry): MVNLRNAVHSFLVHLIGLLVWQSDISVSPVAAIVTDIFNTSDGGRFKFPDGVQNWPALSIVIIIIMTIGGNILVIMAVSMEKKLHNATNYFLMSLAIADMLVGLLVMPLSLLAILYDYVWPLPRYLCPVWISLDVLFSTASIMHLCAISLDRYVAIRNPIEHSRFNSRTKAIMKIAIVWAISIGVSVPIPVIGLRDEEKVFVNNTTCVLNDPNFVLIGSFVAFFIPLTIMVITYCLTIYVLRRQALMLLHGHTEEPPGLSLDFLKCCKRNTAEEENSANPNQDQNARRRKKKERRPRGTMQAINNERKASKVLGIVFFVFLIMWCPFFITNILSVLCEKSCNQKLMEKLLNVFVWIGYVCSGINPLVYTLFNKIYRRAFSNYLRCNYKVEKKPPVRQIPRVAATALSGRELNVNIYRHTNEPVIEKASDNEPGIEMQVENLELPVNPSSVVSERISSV

[4] = target: Prostaglandin G/H synthase 1 (Homo sapiens, UniProt P23219); experiment: biochemical; type: tissue-based, Platelet; conditions: platelet;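 also: inhibition of COX-1 enzyme activity, with arachidonic acid supplied as substrate; in other assays of this panel Not Active means under 50% inhibition at 10 µM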
[5] = target: T3, Leukotriene C4 synthase (Cavia porcellus, UniProt A6XA80); experiment: biochemical; type: tissue-based, Lung;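 also: enzyme inhibition assay of leukotriene C4 synthase, using LTA4 as the substrate; in other assays of this panel Not Active means under 50% inhibition at 10 µM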
T3 sequence (A6XA80 whole entry): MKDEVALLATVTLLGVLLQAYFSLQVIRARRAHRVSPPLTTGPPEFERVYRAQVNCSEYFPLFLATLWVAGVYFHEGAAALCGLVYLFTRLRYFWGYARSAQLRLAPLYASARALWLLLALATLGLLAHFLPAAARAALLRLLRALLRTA

[6] = target: Cytochrome P450 2D6 (Homo sapiens, UniProt P10635); conditions: bti-tn-5b1-4; also: in other assays of this panel Not Active means under 50% inhibition at 10 µM
Chain of Cytochrome P450 2D6 (P10635 whole entry): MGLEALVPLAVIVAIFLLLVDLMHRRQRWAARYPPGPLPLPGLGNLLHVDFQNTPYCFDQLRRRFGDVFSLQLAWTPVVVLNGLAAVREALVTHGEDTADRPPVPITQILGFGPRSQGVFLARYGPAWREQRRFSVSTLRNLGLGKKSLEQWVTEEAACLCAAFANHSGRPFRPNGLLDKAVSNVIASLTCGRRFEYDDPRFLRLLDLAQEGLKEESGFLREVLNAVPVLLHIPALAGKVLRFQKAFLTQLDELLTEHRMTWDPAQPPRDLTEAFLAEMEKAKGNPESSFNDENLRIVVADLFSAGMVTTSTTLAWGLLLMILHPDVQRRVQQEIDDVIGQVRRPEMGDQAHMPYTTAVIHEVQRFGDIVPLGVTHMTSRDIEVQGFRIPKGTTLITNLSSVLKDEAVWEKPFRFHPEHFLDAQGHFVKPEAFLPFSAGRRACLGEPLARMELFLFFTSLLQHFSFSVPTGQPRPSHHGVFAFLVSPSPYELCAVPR

Chain of Prostaglandin G/H synthase 1 (P23219 whole entry): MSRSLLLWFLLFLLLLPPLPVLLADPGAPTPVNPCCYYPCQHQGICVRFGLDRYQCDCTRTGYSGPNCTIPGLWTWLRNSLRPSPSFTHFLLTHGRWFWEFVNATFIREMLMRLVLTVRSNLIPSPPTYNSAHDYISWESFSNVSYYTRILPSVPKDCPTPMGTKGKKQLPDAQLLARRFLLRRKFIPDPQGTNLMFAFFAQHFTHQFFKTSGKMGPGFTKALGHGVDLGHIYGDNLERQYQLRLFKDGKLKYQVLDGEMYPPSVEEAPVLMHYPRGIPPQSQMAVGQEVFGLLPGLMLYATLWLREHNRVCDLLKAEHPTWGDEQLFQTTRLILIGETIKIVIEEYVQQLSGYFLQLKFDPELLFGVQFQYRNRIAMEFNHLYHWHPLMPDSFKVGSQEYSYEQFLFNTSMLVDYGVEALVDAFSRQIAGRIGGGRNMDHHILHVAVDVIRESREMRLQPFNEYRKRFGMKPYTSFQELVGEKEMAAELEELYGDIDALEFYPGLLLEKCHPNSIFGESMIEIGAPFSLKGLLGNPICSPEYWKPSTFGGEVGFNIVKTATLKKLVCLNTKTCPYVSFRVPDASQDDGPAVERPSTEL

## CARBOXYMETHYLCELLULOSE
[1]
  IC50: Not Active
  Ki: Not Active
[2]
  IC50: Not Active
  Ki: Not Active
[3]; cho-k1
  IC50: Not Active
  Ki: Not Active
[4]
  IC50: Not Active
  Ki: Not Active
[5]
  IC50: Not Active
  Ki: Not Active
[6]
  IC50: Not Active
  Ki: Not Active

## COc1ccccc1OCCNCC(O)COc1cccc2[nH]c3ccccc3c12 (configuration not stated) [CARVEDILOL]
[1]
  IC50: Not Active
[2]; read-out: IC50
  pIC50: 6.21
[2]; read-out: Ki
  pKi: 6.26
[3]; read-out: IC50
  pIC50: 6.94
[3]; read-out: Ki
  pKi: 7.22
[4]
  IC50: Not Active
[5]
  IC50: Not Active
[6]
  IC50: Not Active
  Ki: Not Active

## NC(N)=Nc1nc(CSCCC(N)=NS(N)(=O)=O)cs1 [FAMOTIDINE]
[1]
  IC50: Not Active
[2]
  IC50: Not Active
  Ki: Not Active
[3]; cho-k1
  IC50: Not Active
[4]
  IC50: Not Active
[5]
  IC50: Not Active
[6]
  IC50: Not Active
  Ki: Not Active

## COc1ccc(C[C@H](N)C(=O)N[C@H]2[C@@H](O)[C@H](n3cnc4c(N(C)C)ncnc43)O[C@@H]2CO)cc1 [PUROMYCIN]
[1]
  IC50: Not Active
[2]
  IC50: Not Active
  Ki: Not Active
[3]; cho-k1
  IC50: Not Active
[4]
  IC50: Not Active
[5]
  IC50: Not Active
[6]
  IC50: Not Active
  Ki: Not Active
